This assay in a line: KPCB/ K352 ratio of the compound.

In the case of `Oc1ccc(-c2cc(Cl)c(Cl)c(Cl)c2Cl)cc1`, the Ratio was 24.3.

Take `Oc1c(Cl)cc(Cl)cc1-c1ccccc1`: the Ratio turned out to be 1.

`Oc1c(Cl)cc(-c2ccc(Cl)cc2)cc1Cl`: the Ratio came to 27.5.

`Oc1ccc(-c2c(Cl)cc(Cl)cc2Cl)cc1`: the Ratio worked out at 2.91.

For the compound `Oc1c(Cl)cc(-c2cc(Cl)c(O)c(Cl)c2)cc1Cl`, the Ratio came to 45.5.

As to `Oc1c(Cl)cc(-c2ccccc2)cc1Cl`, the Ratio was determined as 45.

As for `O=C1C(Cl)=CC(=C2C=C(Cl)C(=O)C(Cl)=C2)C=C1Cl`, the Ratio is 2.92.

`Oc1c(I)cc(I)cc1I`: the Ratio came out at 33.8.

As to `Clc1cc(-c2cc(Cl)c(Cl)c(Cl)c2)cc(Cl)c1Cl`, the Ratio was 27.7.

The values are drawn from ChEMBL document CHEMBL1123450, “A theoretical study of the binding of polychlorinated biphenyls (PCBs), dibenzodioxins, and dibenzofuran to human plasma prealbumin” (J Med Chem, 1986).
